Reference: US20070270484A1, “3'-N-Substituted-3-O-Substituted Erythronolide a Derivatives” (priority 2003, published 2007)
≈ marks a conversion by molar mass, not a printed value.

Assays:
S. pneum 1256 (erm) = assay: microbe, parasite or virus in culture; type: cell-based, streptococcus pneumoniae; settings: agar dilution, 18-24 hours, 35±2° C., 5% CO2; erm: ribosomal modification (mutation) erm genes
Description: (§1) Drug dilutions and the agar plates are prepared by NCCLS method. Inoculum is prepared by direct colony suspensions in normal saline and adjusted to 0.5 McFarland turbidity and subsequently diluted as per NCCLS guidelines in order to obtain 10^4 CFU/spot. CFU/ml of a few randomly selected cultures is performed. The cultures are replicated on the agar plates using replicator (Denley's multipoint). The plates are incubated at 35±2° C. and in 5% CO2 atmosphere (for respiratory and Haemophilus strains) for 18-24 hours at 35±2° C. Minimum inhibitory concentrations (MIC) are determined after 18-24 hours. Q. C. strains are also included in each run of the study. The cation content of Mueller Hinton agar is checked by performing disk […] of 10 μg gentamicin disk against Pseudomonas aeroginosa ATCC 27853. The zone of inhibition should fall between 16-21 mm. The concentration of drug at which there is complete disappearance of growth spot or formation of less than 10 colonies per spot is considered as MIC.

S. pneum 1275 (erm) = assay: microbe, parasite or virus in culture; type: cell-based, streptococcus pneumoniae; settings: for Minimum Inhibitory Concentrations, S. pneum 1275 (erm): agar dilution, 18-24 hours, 35±2° C., 5% CO2, erm: ribosomal modification (mutation) erm genes
Description: as §1

S. pneum 1294 (mef) = assay: microbe, parasite or virus in culture; type: cell-based, streptococcus pneumoniae; settings: agar dilution, 18-24 hours, 35±2° C., 5% CO2; mef: efflux pump mef genes
Description: as §1

S. pneum AB 14 (erm) = assay: microbe, parasite or virus in culture; type: cell-based, streptococcus pneumoniae; settings: for Minimum Inhibitory Concentrations, S. pneum AB 14 (erm): agar dilution, 18-24 hours, 35±2° C., 5% CO2, erm: ribosomal modification (mutation) erm genes
Description: as §1

S. pneum AB 29 (erm) = assay: microbe, parasite or virus in culture; type: cell-based, streptococcus pneumoniae; settings: agar dilution, 18-24 hours, 35±2° C., 5% CO2; erm: ribosomal modification (mutation) erm genes
Description: as §1

S. pneum AB 30 (erm) = assay: microbe, parasite or virus in culture; type: cell-based, streptococcus pneumoniae; settings: agar dilution, 18-24 hours, 35±2° C., 5% CO2; erm: ribosomal modification (mutation) erm genes
Description: as §1

S. pneum 1251 (mef) = assay: MIC, agar incorporation method (NCCLS agar dilution method); type: cell-based, streptococcus pneumoniae; settings: 18-24 hours, 35±2° C., 5% CO2, mef: efflux pump mef genes
Description: as §1

S. pneum AB 34 (mef) = assay: as above; type: cell-based, streptococcus pneumoniae; settings: 18-24 hours, 35±2° C., 5% CO2, mef: efflux pump mef genes
Description: as §1

S. pneum ATCC 49619 = assay: as above; type: cell-based, streptococcus pneumoniae; settings: 35±2° C.; for Minimum Inhibitory Concentrations, S. pneum ATCC 49619: 18-24 hours, 5% CO2
Description: as §1

S. pneum ATCC 6303 = assay: as above; type: cell-based, streptococcus pneumoniae; settings: 18-24 hours, 35±2° C., 5% CO2
Description: as §1

S. pneum CS 1687 (mef) = assay: as above; type: cell-based, streptococcus pneumoniae; settings: 18-24 hours, 35±2° C., 5% CO2, mef: efflux pump mef genes
Description: as §1

MoraXella MI = assay: as above; type: cell-based; settings: 18-24 hours, 35±2° C.
Description: as §1

H. inflenza ATCC 49247 = assay: as above; type: cell-based, Haemophilus influenzae; settings: agar dilution, 18-24 hours, 35±2° C., 5% CO2
Description: Minimum inhibitory concentrations (μg/ml) were obtained for representative compounds of the invention, which are given in Table 2.
as §1

Molecule | Minimum Inhibitory Concentrations, S. pneum 1256 (erm) (S. pneum 1256 (erm)) [µg/mL] | Minimum Inhibitory Concentrations, S. pneum 1275 (erm) (S. pneum 1275 (erm)) [µg/mL] | Minimum Inhibitory Concentrations, S. pneum 1294 (mef) (S. pneum 1294 (mef)) [µg/mL] | Minimum Inhibitory Concentrations, S. pneum AB 14 (erm) (S. pneum AB 14 (erm)) [µg/mL] | Minimum Inhibitory Concentrations, S. pneum AB 29 (erm) (S. pneum AB 29 (erm)) [µg/mL] | Minimum Inhibitory Concentrations, S. pneum AB 30 (erm) (S. pneum AB 30 (erm)) [µg/mL] | Minimum Inhibitory Concentrations, S. pneum 1251 (mef) (S. pneum 1251 (mef)) [µg/mL] | Minimum Inhibitory Concentrations, S. pneum AB 34 (mef) (S. pneum AB 34 (mef)) [µg/mL] | Minimum Inhibitory Concentrations, S. pneum ATCC 49619 (S. pneum ATCC 49619) [µg/mL] | Minimum Inhibitory Concentrations, S. pneum ATCC 6303 (S. pneum ATCC 6303) [µg/mL] | Minimum Inhibitory Concentrations, S. pneum CS 1687 (mef) (S. pneum CS 1687 (mef)) [µg/mL] | Minimum Inhibitory Concentrations, MoraXella MI (MoraXella MI) [µg/mL] | Minimum Inhibitory Concentrations, H. inflenza ATCC 49247 (H. inflenza ATCC 49247) [µg/mL] | MIC (S. pneum 1275 (erm); Streptococcus pneumoniae, read-out: Minimum Inhibitory Concentrations, S. pneum 1275 (erm)) [µg/mL] | MIC (S. pneum AB 14 (erm); Streptococcus pneumoniae, read-out: Minimum Inhibitory Concentrations, S. pneum AB 14 (erm)) [µg/mL] | MIC (S. pneum ATCC 49619; Streptococcus pneumoniae, ATCC49619, 18-24 hours, 5% CO2, read-out: Minimum Inhibitory Concentrations, S. pneum ATCC 49619) [µg/mL] | MIC (MoraXella MI; Moraxella, read-out: Minimum Inhibitory Concentrations, MoraXella MI) [µg/mL]
3-O-(3-Fluorophenyl)acetyl-5-O-(3′-N-desmethyl-3′-N-allyl)desosaminyl-6-O-methyl erythronolide A [Compound No. 19] | >16 | >16 | 4 | >16 | 2 | >16 | 2 | 16 | 2 | 2 | 2 | 16 |  |  |  |  | 
CCC1OC(=O)C(C)C(OC(=O)Cc2ccc(F)cc2)C(C)C(OC2OC(C)CC(N(C)Cc3ccc([N+](=O)[O-])cc3)C2O)C(C)(OC)CC(C)C(=O)C(C)C(O)C1(C)O (stereo not shown) [Compound No. 24, 3-O-(4-Fluorophenyl)acetyl-5-O-(3′-N-desmethyl-3′-N-(4-nitro)benzyl)desosaminyl-6-O-methyl erythronolide A] | >16 | >16 | 2 | 8 | >16 | >16 | 1 | >16 | 0.5 | 0.5 | 0.5 | 2 |  |  |  |  | 
CCC1OC(=O)C(C)C(OC(=O)Cc2ccccc2F)C(C)C(OC2OC(C)CC(N(C)Cc3ccc(F)cc3)C2O)C(C)(OC)CC(C)C(=O)C(C)C(O)C1(C)O (stereo not shown) [Compound No. 5, 3-O-(2-Fluorophenyl)acetyl-5-O-[3′-N-desmethyl-3′-N-(4-fluoro)benzyl]desosaminyl-6-O-methyl erythronolide A] | >8 | >16 | 2 | >8 |  | >8 | 2 | >8 | 2 | 2 | 2 | >8 | >128 |  |  |  | 
3-O-(3-Fluorophenyl)acetyl-5-O-[3′-N-desmethyl-3′-N-cyclopropyl)desosaminyl-6-O-methyl erythronolide A [Compound No. 16] | 16 | >16 | 1 | >16 |  | >16 | 8 | >16 | 4 | 1 | 4 | >16 | >16 |  |  |  | 
CCC1OC(=O)C(C)C(OC(=O)Cc2ccc(F)cc2F)C(C)C(OC2OC(C)CC(N(C)Cc3ccccc3)C2O)C(C)(OC)CC(C)C(=O)C(C)C(O)C1(C)O (stereo not shown) [Compound No. 74, 3-O-(2,4-Difluorophenyl)acetyl-5-O-(3′-N-desmethyl-3′-N-benzyl) desosaminyl-6-O-methyl erythronolide A] | >16 | >16 | >16 | 16 | >16 | >16 | >16 | >16 | >16 | 8 | >16 | >16 |  |  |  |  | 
3-O-(3-Fluorophenyl)acetyl-5-O-(3′-N-desmethyl-3′-N-propargyl)desosaminyl-6-O-methyl erythronolide A [Compound No. 22] | >16 | >16 | 4 | >16 |  | >16 | 4 | >16 | 0.5 | 0.5 | 1 | 4 | >16 |  |  |  | 
CCC1OC(=O)C(C)C(OC(=O)Cc2ccc3ccccc3c2)C(C)C(OC2OC(C)CC(N(C)Cc3ccccc3)C2O)C(C)(OC)CC(C)C(=O)C(C)C(O)C1(C)O (stereo not shown) [Compound No. 73, 3-O-(2-Naphthyl)acetyl-5-O-(3′-N-desmethyl-3′-N-benzyl) desosaminyl-6-O-methyl erythronolide A] | >16 | >16 | >16 | >16 | >16 | >16 | 2 | >16 | 2 | 1 | 2 | 16 |  |  |  |  | 
3-O-(4-Fluorophenyl)acetyl-5-O-(3′-N-desmethyl-3′-N-allyl)desosaminyl-6-O-methyl erythronolide A [Compound No. 20] | 16 | >16 | 1 | >16 |  | >16 | 1 | >16 | 0.25 | 0.5 | 1 | 16 | >16 |  |  |  | 
CCC[C@@H]1C[C@@H](C(=O)N[C@@H]([C@H]2O[C@H](SC)[C@H](O)[C@@H](O)[C@H]2O)[C@H](C)Cl)N(C)C1 [Cl, Clindamycin, reference compound] |  |  |  |  |  |  |  |  |  |  |  |  |  | > 16 | > 16 | 0.015 (≈ 0.0353 µM) | 2 (≈ 4.71 µM)
